Measurements from patent publication US20220340597A1, “HEXAHYDRO-1H-PYRAZINO[1,2-A]PYRAZINE COMPOUNDS FOR THE TREATMENT OF AUTOIMMUNE DISEASE” (Hoffmann-La Roche Inc., priority 2019, published 2022).

Key:
human TLR8 = molecular target: T1, human TLR8 (Homo sapiens, UniProt Q9NR97); test: HEK293-Blue-hTLR-8 cells assay
T1 sequence (Q9NR97 27-1041): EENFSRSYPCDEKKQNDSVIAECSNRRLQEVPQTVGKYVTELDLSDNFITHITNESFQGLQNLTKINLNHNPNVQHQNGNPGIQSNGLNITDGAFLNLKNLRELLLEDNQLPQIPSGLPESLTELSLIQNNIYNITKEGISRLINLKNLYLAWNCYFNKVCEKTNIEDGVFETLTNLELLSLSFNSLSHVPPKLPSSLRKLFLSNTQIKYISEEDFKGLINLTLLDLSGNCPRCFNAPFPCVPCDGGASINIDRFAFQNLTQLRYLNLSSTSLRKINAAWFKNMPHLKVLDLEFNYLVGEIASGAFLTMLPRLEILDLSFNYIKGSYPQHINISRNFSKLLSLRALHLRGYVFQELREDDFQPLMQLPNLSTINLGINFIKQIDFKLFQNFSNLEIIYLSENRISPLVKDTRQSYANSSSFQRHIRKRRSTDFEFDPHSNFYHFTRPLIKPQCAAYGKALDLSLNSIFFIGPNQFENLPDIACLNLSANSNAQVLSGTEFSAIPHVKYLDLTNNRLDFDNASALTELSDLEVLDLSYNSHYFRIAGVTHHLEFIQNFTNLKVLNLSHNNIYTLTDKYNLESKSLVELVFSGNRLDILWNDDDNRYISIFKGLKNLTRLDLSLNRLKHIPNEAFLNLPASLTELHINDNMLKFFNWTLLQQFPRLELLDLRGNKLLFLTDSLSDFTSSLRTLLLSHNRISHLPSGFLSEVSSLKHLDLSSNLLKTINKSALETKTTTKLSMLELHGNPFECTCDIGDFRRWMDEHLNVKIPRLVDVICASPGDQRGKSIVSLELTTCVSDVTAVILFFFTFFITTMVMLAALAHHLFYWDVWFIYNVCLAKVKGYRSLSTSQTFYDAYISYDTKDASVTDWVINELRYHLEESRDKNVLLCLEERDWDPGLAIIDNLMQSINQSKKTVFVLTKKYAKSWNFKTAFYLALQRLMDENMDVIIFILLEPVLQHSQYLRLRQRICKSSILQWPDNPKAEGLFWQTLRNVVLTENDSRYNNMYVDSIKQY
Experimental: The following tests were carried out in order to determine the activity of the compounds of formula (I) and (Ia) in HEK293-Blue-hTLR-7/8/9 cells assay.
HEK293-Blue-hTLR-8 Cells Assay:
A stable HEK293-Blue-hTLR-8 cell line was purchased from InvivoGen (Cat. #: hkb-htlr8, San Diego, Calif., USA). These cells were originally designed for studying the stimulation of human TLR8 by monitoring the activation of NF-κB. A SEAP (secreted embryonic alkaline phosphatase) reporter gene was placed under the control of the IFN-β minimal promoter fused to five NF-κB and AP-1-binding sites. The SEAP was induced by activating NF-κB and AP-1 via stimulating HEK-Blue hTLR8 cells with TLR8 ligands. Therefore, the reporter expression was declined by TLR8 antagonist under the stimulation of a ligand, such as R848, for incubation of 20 hrs. The cell culture supernatant SEAP reporter activity was determined using QUANTI-Blue™ kit (Cat. #: rep-qb1, Invivogen, San Diego, Calif., USA) at a wavelength of 640 nm, a detection medium that turns purple or blue in the presence of alkaline phosphatase.

human TLR7 = molecular target: T2, human TLR7 (Homo sapiens, UniProt Q9NYK1); test: HEK293-Blue-hTLR-7 cells assay; format: cell-based; settings: HEK293-Blue-hTLR7 cells, R848 stimulation, 20 hrs, SEAP reporter; read-out: HEK/hTLR7 IC50
T2 construct: host or cells: HEK293 (HEK-Blue hTLR7)
T2 sequence (Q9NYK1 27-1049): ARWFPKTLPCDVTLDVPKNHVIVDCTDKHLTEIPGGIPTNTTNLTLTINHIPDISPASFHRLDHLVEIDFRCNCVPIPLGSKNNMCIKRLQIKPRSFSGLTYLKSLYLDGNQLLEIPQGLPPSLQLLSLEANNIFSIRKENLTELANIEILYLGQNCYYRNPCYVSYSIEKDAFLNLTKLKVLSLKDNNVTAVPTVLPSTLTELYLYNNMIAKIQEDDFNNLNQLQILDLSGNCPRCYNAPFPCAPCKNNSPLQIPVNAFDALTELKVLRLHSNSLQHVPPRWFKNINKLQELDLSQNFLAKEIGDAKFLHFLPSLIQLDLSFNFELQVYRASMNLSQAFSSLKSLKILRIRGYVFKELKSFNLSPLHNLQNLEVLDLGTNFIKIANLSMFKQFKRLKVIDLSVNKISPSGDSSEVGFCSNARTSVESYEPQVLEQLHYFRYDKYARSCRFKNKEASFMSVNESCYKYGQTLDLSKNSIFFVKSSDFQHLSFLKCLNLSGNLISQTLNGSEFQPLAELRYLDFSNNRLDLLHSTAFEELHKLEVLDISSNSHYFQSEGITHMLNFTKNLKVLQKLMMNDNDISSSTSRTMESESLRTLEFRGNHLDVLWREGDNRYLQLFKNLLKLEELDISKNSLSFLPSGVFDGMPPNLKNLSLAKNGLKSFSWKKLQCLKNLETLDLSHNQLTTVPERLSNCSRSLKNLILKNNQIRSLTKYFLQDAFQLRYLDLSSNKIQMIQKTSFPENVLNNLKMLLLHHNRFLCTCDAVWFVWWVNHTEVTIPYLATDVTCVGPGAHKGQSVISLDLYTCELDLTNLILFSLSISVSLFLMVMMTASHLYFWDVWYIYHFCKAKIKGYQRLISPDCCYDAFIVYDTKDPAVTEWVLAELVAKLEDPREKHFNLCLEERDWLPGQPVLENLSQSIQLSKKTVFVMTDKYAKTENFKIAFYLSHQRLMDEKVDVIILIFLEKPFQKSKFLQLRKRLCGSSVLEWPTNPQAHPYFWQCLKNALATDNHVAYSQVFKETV

Compound	IC50 (human TLR8) [nM]	IC50 (human TLR7) [nM]
[2H]c1ccc2c(N3C[C@@H]4CN(CCc5ccc(N6CC7(CN(C)C7)C6)nc5)CCN4[C@H](C)C3)ccc(C#N)c2n1 [Example 64, 5-[(4R,9aS)-4-methyl-8-[2-[6-(6-methyl-2,6-diazaspiro[3.3]heptan-2-yl)-3-pyridyl]ethyl]-3,4,6,7,9,9a-hexahydro-1H-pyrazino[1,2-a]pyrazin-2-yl]-2-deuterio-quinoline-8-carbonitrile]	32	23
CO[C@@H]1CN(c2ccc(CCN3CCN4[C@@H](C3)CN(c3ccc(C#N)n5ncc(F)c35)C[C@H]4C)cc2)C[C@H]1N [Example 66, 4-[(4R,9aS)-8-[2-[4-[(3R,4R)-3-amino-4-methoxy-pyrrolidin-1-yl]phenyl]ethyl]-4-methyl-3,4,6,7,9,9a-hexahydro-1H-pyrazino[1,2-a]pyrazin-2-yl]-3-fluoro-pyrazolo[1,5-a]pyridine-7-carbonitrile]	39	62
CO[C@@H]1CN(c2ccc(CCN3CCN4[C@@H](C3)CN(c3ccc(C#N)n5ncc(F)c35)C[C@H]4C)cn2)C[C@H]1N [Example 67, 4-[(4R,9aS)-8-[2-[6-[(3R,4R)-3-amino-4-methoxy-pyrrolidin-1-yl]-3-pyridyl]ethyl]-4-methyl-3,4,6,7,9,9a-hexahydro-1H-pyrazino[1,2-a]pyrazin-2-yl]-3-fluoro-pyrazolo[1,5-a]pyridine-7-carbonitrile]	84	65
CO[C@@H]1CN(c2ccc(CCN3CCN4[C@@H](C3)CN(c3ccc(C#N)n5nccc35)C[C@H]4C)cc2)C[C@H]1N [Example 68, 4-[(4R,9aS)-8-[2-[4-[(3R,4R)-3-amino-4-methoxy-pyrrolidin-1-yl]phenyl]ethyl]-4-methyl-3,4,6,7,9,9a-hexahydro-1H-pyrazino[1,2-a]pyrazin-2-yl]pyrazolo[1,5-a]pyridine-7-carbonitrile]	77	53
C[C@@H]1CN(c2ccc(C#N)n3ncc(F)c23)C[C@@H]2CN(Cc3ccc4c(c3)CNCC4)CCN21 [Example 69, 4-[(4R,9aS)-4-methyl-8-(1,2,3,4-tetrahydroisoquinolin-7-ylmethyl)-3,4,6,7,9,9a-hexahydro-1H-pyrazino[1,2-a]pyrazin-2-yl]-3-fluoro-pyrazolo[1,5-a]pyridine-7-carbonitrile]	52	66
C[C@@H]1CN(c2ccc(C#N)n3ncc(F)c23)C[C@@H]2CN(CCc3ccc(N4CC(C)(N)C4)nc3)CCN21 [Example 74, 4-[(4R,9aS)-8-[2-[6-(3-amino-3-methyl-azetidin-1-yl)-3-pyridyl]ethyl]-4-methyl-3,4,6,7,9,9a-hexahydro-1H-pyrazino[1,2-a]pyrazin-2-yl]-3-fluoro-pyrazolo[1,5-a]pyridine-7-carbonitrile]	62	28
C[C@@H]1CN(c2ccc(C#N)n3ncc(F)c23)C[C@@H]2CN(CCc3ccc(N4C[C@@H](N)[C@@H](F)C4)nc3)CCN21 [Example 75, 4-[(4R,9aS)-8-[2-[6-[(3R,4S)-3-amino-4-fluoro-pyrrolidin-1-yl]-3-pyridyl]ethyl]-4-methyl-3,4,6,7,9,9a-hexahydro-1H-pyrazino[1,2-a]pyrazin-2-yl]-3-fluoro-pyrazolo[1,5-a]pyridine-7-carbonitrile]	84	34

Compounds with a lower IC50 (human TLR8), results first:

IC50 (human TLR8) [nM]	IC50 (human TLR7) [nM]	Compound
8	16	[2H]c1ccc2c(N3C[C@@H]4CN(Cc5ccc6c(c5)CNCC6)CCN4[C@H](C)C3)ccc(C#N)c2n1 [Example 61, 5-[(4R,9aS)-4-methyl-8-(1,2,3,4-tetrahydroisoquinolin-7-ylmethyl)-3,4,6,7,9,9a-hexahydro-1H-pyrazino[1,2-a]pyrazin-2-yl]-2-deuterio-quinoline-8-carbonitrile]
17	23	[2H]c1ccc2c(N3C[C@@H]4CN(CCc5ccc(N6C[C@@H](N)[C@H](OC)C6)nc5)CCN4[C@H](C)C3)ccc(C#N)c2n1 [Example 62, 5-[(4R,9aS)-8-[2-[6-[(3R,4R)-3-amino-4-methoxy-pyrrolidin-1-yl]-3-pyridyl]ethyl]-4-methyl-3,4,6,7,9,9a-hexahydro-1H-pyrazino[1,2-a]pyrazin-2-yl]-2-deuterio-quinoline-8-carbonitrile]
28	19	C[C@@H]1CN(c2ccc(C#N)c3ncccc23)C[C@@H]2CN(CCc3ccc(N4CC(C)(N)C4)nc3)CCN21 [Example 65, 5-[(4R,9aS)-8-[2-[6-(3-amino-3-methyl-azetidin-1-yl)-3-pyridyl]ethyl]-4-methyl-3,4,6,7,9,9a-hexahydro-1H-pyrazino[1,2-a]pyrazin-2-yl]quinoline-8-carbonitrile]
12	11	C[C@@H]1CN(c2ccc(C#N)c3ncccc23)C[C@@H]2CN(Cc3cccc4c3CCNC4)CCN21 [Example 70, 5-[(4R,9aS)-4-methyl-8-(1,2,3,4-tetrahydroisoquinolin-5-ylmethyl)-3,4,6,7,9,9a-hexahydro-1H-pyrazino[1,2-a]pyrazin-2-yl]quinoline-8-carbonitrile]
21	45	C[C@@H]1CN(c2ccc(C#N)c3ncccc23)C[C@@H]2CN(Cc3cccc4c3CNCC4)CCN21 [Example 71, 5-[(4R,9aS)-4-methyl-8-(1,2,3,4-tetrahydroisoquinolin-8-ylmethyl)-3,4,6,7,9,9a-hexahydro-1H-pyrazino[1,2-a]pyrazin-2-yl]quinoline-8-carbonitrile]
15	12	C[C@@H]1CN(c2ccc(C#N)c3ncccc23)C[C@@H]2CN(Cc3cccc4c3CNC4)CCN21 [Example 72, 5-[(4R,9aS)-8-(isoindolin-4-ylmethyl)-4-methyl-3,4,6,7,9,9a-hexahydro-1H-pyrazino[1,2-a]pyrazin-2-yl]quinoline-8-carbonitrile]
18	25	Cc1cc(N2CCN3[C@@H](C2)CN(c2ccc(C#N)c4ncccc24)C[C@H]3C)cc(N2CC(C)(N)C2)n1 [Example 73, 5-[(4R,9aS)-8-[2-(3-amino-3-methyl-azetidin-1-yl)-6-methyl-4-pyridyl]-4-methyl-3,4,6,7,9,9a-hexahydro-1H-pyrazino[1,2-a]pyrazin-2-yl]quinoline-8-carbonitrile]
5	16	Cc1nc(N2CC(C)(N)C2)ccc1CN1CCN2[C@@H](C1)CN(c1ccc(C#N)c3ncccc13)C[C@H]2C [Example 76, 5-[(4R,9aS)-8-[[6-(3-amino-3-methyl-azetidin-1-yl)-2-methyl-3-pyridyl]methyl]-4-methyl-3,4,6,7,9,9a-hexahydro-1H-pyrazino[1,2-a]pyrazin-2-yl]quinoline-8-carbonitrile]
